Reference: paper PMC9186362, “Design and biological evaluation of substituted 5,7-dihydro-6H-indolo[2,3-c]quinolin-6-one as novel selective Haspin inhibitors” (Journal of Enzyme Inhibition and Medicinal Chemistry, 2022)
pEC50: −log10 of the molar value.

How the values were obtained:
[1] = tested on: RPE1 cell line; test: Cell viability MTS assay, dose-response; assay type: cell-based; conditions: Homo sapiens, RPE-1; 48 h, MTS assay in triplicate, doses up to 50 µM
Procedure: HCT116 cells were cultured in McCoy’s medium. SH-SY5Y, MDA-MB231 and U-2 OS cells were cultured in Dulbecco's modified Eagle's medium (DMEM) and hTERT RPE-1 cells in DMEM:F12 medium. All media were supplemented with 10% foetal calf serum and cells were cultured at 37 °C in a 5% CO2 humidified atmosphere.
Cell viability was then assessed using the CellTiter96 AQueous cell proliferation assay from Promega according to the manufacturer’s instructions. Each experiment was done in triplicate and EC50 were determined from the dose-response curves according to the signal given by the control (0.1% DMSO) set at 100% viability using Prism GraphPad software.

[2] = tested on: endogenous Haspin (H3T3ph) in U-2 OS cells; test: Endogenous Haspin activity, H3T3ph immunofluorescence; assay type: cell-based, human; conditions: 0.5 µM, 16 h, early mitotic U-2 OS cells
Procedure: U-2 OS cells were grown on glass coverslips, treated for 16 h than fixed with 4% paraformaldehyde in PBS, permeabilized by 0.15% Triton-X100 for 2 min, blocked for 15 min in 4% BSA in PBS and processed using standard immunofluorescence protocols. Primary antibodies included anti-phospho-Thr3 Histone H3 (1/1000 dilution, Millipore) and anti-α-tubulin (1/5000 dilution, clone B512, Sigma). Images were acquired with a Coolsnap HQ2 CCD camera (Photometrics) on a Zeiss Axio microscope (Carl Zeiss) using a 63x NA 1.40 objective. Image acquisition and processing were performed using Metamorph (Molecular Device). Quantification of signal intensity was performed using ImageJ software (NIH).

For `COc1ccc2[nH]c3c(=O)[nH]c4ccc(O)cc4c3c2c1` [Compound 55, 2-Hydroxy-10-methoxy-5,7-dihydro-6H-indolo[2,3-c]quinolin-6-one], the pEC50 [1] was 4.97 and the “Inhibition of intracellular Haspin (H3T3ph signal)” value [2] was “could inhibit intracellular Haspin”.
